Experimental data published in patent US20080318268A1, “Devices and Methods for the Selection of Agents with Efficacy Against Biofilm” (priority 2005, published 2008).
Read-outs that look alike come from different tables or passages of the source.

Columns and labels:
[1] = system: Staphylococcus aureus biofilm; test: Staphylococcus test plate, biofilm forms (Example 9); format: cell-based; settings: breakpoint concentrations, number in the label is the concentration tested
[2] = system: Staphylococcus aureus (Staph) biofilm; test: MBEC assay, Staph biofilms (Example 5); format: cell-based; settings: number of resistant isolates; 12 isolates from device associated infections; exposed 24 hours
[3] = system: Staphylococcus aureus (Staph) planktonic bacteria; test: MBEC assay, planktonic Staph isolates (Example 5); format: cell-based; settings: number of resistant isolates; 12 isolates from device associated infections; exposed 24 hours
[4] = system: planktonic Staphylococcus aureus; test: Staphylococcus test plate, planktonic forms (Example 9); format: cell-based; settings: breakpoint concentrations, number in the label is the concentration tested
[5] = system: biofilm cells of C. albicans; test: Minimum biofilm eradication concentration assay, C. albicans biofilm; format: cell-based, Candida albicans
Experimental: (§1) Three clinical isolates of Candida were used in this study, including one albicans and two non-albicans species. C. albicans ATCC 14053 was obtained from the University Of Calgary, Department Of Biological Sciences. C. tropicalis 99916 and C. glabrata 14326 were obtained from the dialysate of patients undergoing continued ambulatory peritoneal dialysis (CAPD). Aspergillus fumigatus was also tested.
Biofilm formation and measurement of antimicrobial sensitivity of Candida and Aspergillus biofilms were performed using an assembly of the present invention. The device features a microtiter plate lid with 96 pegs or projections distributed on the lid. Each peg provided the surface for microorganism to adhere, colonize and form a uniform biofilm. The pegs fit precisely into the wells of a standard 96-well microtiter plate. The lid was used in conjunction with a base having special troughs for growing, washing, and incubating fungi. […] It was determined in preliminary experiments that C. glabrata required 10% CO2 atmosphere for biofilms to form.
(§2) Biofilm susceptibility testing uses the pegged lid of the assembly, now containing biofilms formed after rocking in the tray for 24 hour. […] The turbidity of the wells that contained the antibiotic and planktonic cells which were shed from the biofilm was measured at 650 nm to obtain the MIC. […]

[6] = system: invasive pulmonary, sinus and cerebral aspergillosis; settings: cited from earlier work
Candida biofilms = test: Minimum biofilm eradication concentration assay, Candida spp. biofilms; format: cell-based
Experimental: as §1
Biofilm formation and measurement of antimicrobial sensitivity of Candida and Aspergillus biofilms were performed using an assembly of the present invention. The device features a microtiter plate lid with 96 pegs or projections distributed on the lid. Each peg provided the surface for microorganism to adhere, colonize and form a uniform biofilm. The pegs fit precisely into the wells of a standard 96-well microtiter plate. The lid was used in conjunction with a base having special troughs for growing, washing, and incubating fungi. Colonies of Candida sp. were picked from 24 hour cultures on Sabouraud Dextrose agar (SDA) (BBL Microbiological Systems, Cockeysville, Md.) and placed into Mueller-Hinton Broth (MHB) (Difco Laboratories, Detroit Mich.) such that the suspension matched a McFarland standard of 1.0. This suspension was then diluted 1:30 in MHB, and 25 ml were pipetted into the trough chamber of the base. The closed assembly (lid with pegs positioned on the base) was placed on a Hoeffer Red Rocker (VWR, Scientific) set to rock the plates 3.5 cycles per minute in a 37° C. incubator. C. albicans and C. tropicalis were incubated aerobically, while C. glabrata was incubated in 10% CO2. It was determined in preliminary experiments that C. glabrata required 10% CO2 atmosphere for biofilms to form.
(§3) Biofilm susceptibility testing uses the pegged lid of the assembly, now containing biofilms formed after rocking in the tray for 24 hour. Each peg on the lid was gently washed once in 200 μl of phosphate buffered saline solution (PBSS) in a 96-well microtiter plate (Falcon). The pegged lid was then transferred to another 96 well microtiter plate containing 2 fold dilutions antifungal agent in 200 μl of RPMI 1640 (Sigma, St. Louis, Mo.) or RPMI 1640 containing 1% DMSO (see test drug section). After the pegs were exposed to the drugs for 24 hours, the pegged lid was removed and gently rinsed twice in saline. The pegged lid was then placed on a 96 well plate containing RPMI 1640 recovery medium. The pegs were sonicated for 5 minutes (Candida spp.) or 7 minutes (Aspergillus) in an ultrasonicator to dislodge adherent cells into the recovery medium. Aliquots of 20 μl of the recovery medium were spot plated on SDA (Candida spp) or Rose Bengal Agar (A. fumigatus) to obtain the MBEC. The assembly was also used to determine the minimum inhibitory concentration (MIC) and minimum fungicidal concentration (MFC). The turbidity of the wells that contained the antibiotic and planktonic cells which were shed from the biofilm was measured at 650 nm to obtain the MIC. A 20 μl sample from each well was also spot plated onto Sabouraud Dextrose agar (Candida spp) or Rose Bengal Agar (A. fumigatus) to obtain the MFC.
Drugs tested. Itraconazole, Fluconazole, and Ketoconazole were obtained from Janssen Pharmaceuticals in Brussels, Belgium. Nystatin 5-Fluorocytosine, Griseofulvin, Amphotericin B and Polymyxin B were obtained from Sigma Chemical Co, St. Louis, Mo. […]

[7] = system: planktonic cultures of C. albicans; test: Planktonic antifungal sensitivity (MIC, MFC) of C. albicans; format: cell-based, Candida albicans
Experimental: as §1
as §3, with “The assembly was also used to determine the minimum inhibitory concentration (MIC) and minimum fungicidal concentration (MFC).” left out, “A 20 μl sample from each well was also spot plated onto Sabouraud Dextrose agar (Candida spp) or Rose Bengal Agar (A. fumigatus) to obtain the MFC.” left out
(§4) Minimum Inhibitory Concentrations (MIC) and Minimum Fungicidal Concentrations (MFC) were determined according to the guidelines of the National Committee for Clinical laboratory Standards (NCCLS). […]
(§5) The test wells were then incubated at 37° C. for 24 hours with the antifungal drugs. MICs for Candida were obtained after incubation by reading the turbidity at 650 nm on a microtiter plate reader (Softmax, VWR). […] MFCs were determined for Aspergillus by plating 100 μl from each well onto Rose Bengal Agar, followed by spreading with a sterile glass spreader. […]

planktonic Candida cells = test: Planktonic antifungal sensitivity of Candida spp.; format: cell-based; settings: all species tested
Experimental: as §1, §3
Minimum Inhibitory Concentrations (MIC) and Minimum Fungicidal Concentrations (MFC) were determined according to the guidelines of the National Committee for Clinical laboratory Standards (NCCLS). Briefly, Candida sp. were maintained on polystyrene spheres at −70° C. until plating. These organisms were streaked onto Sabouraud Dextrose agar (Microbiologie) plates 24 hours before test initiation. The 24 hour colonies were picked from the agar plates and placed in Muellar-Hinton Broth (MHB, Microbiologie) such that the turbidity matched a McFarland standard of 0.5. This was then diluted 1:10 in MHB to obtain a suspension of approximately 1×10^5 to 5×10^5 CFU/ml. A 5 μl volume of this suspension was added to wells containing 200 μl of antifungal agent serially diluted in RPMI 1640 media (Sigma) in a 96 well microtiter plate (Nunclon). A. fumigatus was maintained as a spore suspension at 4° C. until testing. The spore suspension (50 μl) was diluted into 250 ml of TSB, and 5 μl of this suspension was added to each test well containing dilution of antifungal agent as above.
The test wells were then incubated at 37° C. for 24 hours with the antifungal drugs. MICs for Candida were obtained after incubation by reading the turbidity at 650 nm on a microtiter plate reader (Softmax, VWR). A 20 μl aliquot of each well was also plated (SDA) and MFCs obtained from them after 24 hours incubation at 37° C. MFCs were determined for Aspergillus by plating 100 μl from each well onto Rose Bengal Agar, followed by spreading with a sterile glass spreader. The plated organisms were maintained at 25° C. for three days before colony enumeration.
Drugs tested. Itraconazole, Fluconazole, and Ketoconazole were obtained from Janssen Pharmaceuticals in Brussels, Belgium. Nystatin 5-Fluorocytosine, Griseofulvin, Amphotericin B and Polymyxin B were obtained from Sigma Chemical Co, St. Louis, Mo. 5-Fluorocytosine, polymyxin B sulphate and nystatin were dissolved in double-distilled water to a concentration of 10.24 mg/ml and diluted in the test wells through a range of 1024 μg/ml to 0.125 μg/ml in RPMI. […]

[8] = cited from earlier work
C. tropicalis = test: Planktonic antifungal sensitivity (MIC) of C. tropicalis; format: cell-based, Candida tropicalis; settings: C. tropicalis strain tested
Experimental: as §1
as §2, with “hour. Each peg on the lid was gently washed once in 200 μl of phosphate buffered saline solution (PBSS) in a 96-well microtiter plate (Falcon).” for “hour.”
as §4, §5

[9] = system: Pseudomonas aeruginosa (Ps) biofilm; test: MBEC assay, Ps biofilms (Example 5); format: cell-based; settings: number of resistant isolates; 12 isolates from Cystic Fibrosis patients; exposed 24 hours
planktonic P. aeruginosa = test: Pseudomonas aeruginosa biofilm assay kit, planktonic MIC reading of challenge plate (Example 8); format: cell-based; settings: challenge 24 hours at 35° C.; breakpoint concentrations
[10] = system: Pseudomonas aeruginosa (Ps) planktonic bacteria; test: MBEC assay, planktonic Ps isolates (Example 5); format: cell-based; settings: number of resistant isolates; 12 isolates from Cystic Fibrosis patients; exposed 24 hours
P. aeruginosa biofilm = test: Pseudomonas aeruginosa biofilm assay kit, biofilm MBEC reading of recovery plate (Example 8); format: cell-based; settings: challenge 24 hours at 35° C.; recovery 20 to 24 hours; breakpoint concentrations
[11] = planktonic cultures of C. albicans

Compound: CN[C@H](CC(C)C)C(=O)N[C@H]1C(=O)N[C@@H](CC(N)=O)C(=O)N[C@H]2C(=O)N[C@H]3C(=O)N[C@H](C(=O)N[C@H](C(=O)O)c4cc(O)cc(O)c4-c4cc3ccc4O)[C@H](O)c3ccc(c(Cl)c3)Oc3cc2cc(c3O[C@@H]2O[C@H](CO)[C@@H](O)[C@H](O)[C@H]2O[C@H]2C[C@](C)(N)[C@H](O)[C@H](C)O2)Oc2ccc(cc2Cl)[C@H]1O [VAN, vancomycin]
- Number of Staphylococcus aureus isolates resistant to individual antibiotics and antibiotic combinations, Biofilm [1]: 12
- Staph resistance to individual antibiotics and antibiotic combinations, Biofilm [2]: 12
- Staph resistance to individual antibiotics and antibiotic combinations, Planktonic [3]: 6
- Number of Staphylococcus aureus isolates resistant to individual antibiotics and antibiotic combinations, Planktonic ([4]; listed as VAN2): 5
- Number of Staphylococcus aureus isolates resistant to individual antibiotics and antibiotic combinations, Planktonic ([4]; listed as VAN4): 1

Compound: C[C@@H]1[C@H](O)[C@@H](C)/C=C/C=C/C=C/C=C/C=C/C=C/C=C/[C@H](O[C@@H]2O[C@H](C)[C@@H](O)[C@H](N)[C@@H]2O)C[C@@H]2O[C@](O)(C[C@@H](O)C[C@@H](O)[C@H](O)CC[C@@H](O)C[C@@H](O)CC(=O)O[C@H]1C)C[C@H](O)[C@H]2C(=O)O [amphotericin B, Amphotericin B]
- average concentration required to kill biofilm cells [5]: 12 µg/mL
- cases that show any response ([6]; 14 days of treatment): 54%
- crude mortality rate ([6]; patients treated for invasive cerebral aspergillosis): 99%
- crude mortality rate ([6]; patients treated for invasive pulmonary aspergillosis): 86%
- crude mortality rate ([6]; patients treated for invasive sinus aspergillosis): 66%
- MBEC (Candida biofilms; Candida biofilms): 16 µg/mL
- effectiveness against Candida growing as a biofilm (Candida biofilms; biofilm (sessile) Candida): most effective agents
- average MFC [7, 11]: 0.02 µg/mL
- average MIC [7, 11]: 0.09 µg/mL
- effectiveness in killing planktonic Candida cells (planktonic Candida cells): effective
- peak permissible human serum concentrations [8]: 2 µg/mL

Compound: OC(Cn1cncn1)(Cn1cncn1)c1ccc(F)cc1F [fluconazole, Fluconazole]
- classification by fluconazole MIC criterion (less than or equal to 8 μg/ml = susceptible) (C. tropicalis): susceptible
- classification by fluconazole MIC criterion (less than or equal to 8 μg/ml = susceptible) ([7]; C. albicans strain tested): susceptible
- effectiveness in killing planktonic Candida cells (planktonic Candida cells): effective

Compound: gentamicin [GM]
- Number of Staphylococcus aureus isolates resistant to individual antibiotics and antibiotic combinations, Biofilm ([1]; listed as GM2): 11
- Number of Staphylococcus aureus isolates resistant to individual antibiotics and antibiotic combinations, Biofilm ([1]; listed as GM4): 10
- Ps resistance to individual antibiotics and antibiotic combinations, Biofilm [9]: 12
- Number of P. aeruginosa isolates resistant to individual antibiotics and antibiotic combinations, Planktonic (planktonic P. aeruginosa): 8
- Ps resistance to individual antibiotics and antibiotic combinations, Planktonic [10]: 8
- Staph resistance to individual antibiotics and antibiotic combinations, Biofilm [2]: 10
- Number of P. aeruginosa isolates resistant to individual antibiotics and antibiotic combinations, Biofilm (P. aeruginosa biofilm): 12
- Staph resistance to individual antibiotics and antibiotic combinations, Planktonic [3]: 6
- Number of Staphylococcus aureus isolates resistant to individual antibiotics and antibiotic combinations, Planktonic ([4]; listed as GM2): 4
- Number of Staphylococcus aureus isolates resistant to individual antibiotics and antibiotic combinations, Planktonic ([4]; listed as GM4): 3
